Source: patent US6589996B2, “Treatment of disorders relating to the serotonergic system” (Orion Corporation, priority 2000, dated 2003)
Read-outs that look alike come from different tables or passages of the source.

Experiments:
rats [1] = details: intraperitoneally 1 or 10 mg/kg, 8 times, twice a day; cited from earlier work
rats [2] = details: single intraperitoneal administration; cited from earlier work
[3] = human, in vivo
Procedure: In a comparative pharmacokinetic study of orally administered deramciclane in rats, dogs, rabbits and humans (Klebovich et al Pharm. Pharmacol. Commun., 4:129-136, 1998), it was shown that the plasma concentration curves obtained after the administration of a single 3 mg/kg oral dose of deramciclane to rats (dogs, rabbits) and human show considerable species specific differences. […] Thus a 40-times lower oral dose of deramciclane could be used in man to result in the same maximal plasma concentration as in rat. […] Thus, over 300 times lower oral doses should result in equal exposure in humans than in rats. Basing only the Cmax difference between rat and man, it can be predicted that considerably lower doses should be centrally active in humans than in rat. The minimum oral effective anti-anxiety dose in rats was 1 mg/kg (1-30 mg/kg the full range; see above), i.e. in a 70 kg-man this would mean 70 mg dose. […] This would result in 70 mg/40=1.75 mg (i.e. 0.025 mg/kg) as an effective dose in man.

rats [4] = details: oral doses of 25 and 100 mg/kg; cited from earlier work
[5] = human, cited from earlier work; for Cmin and Cmax range: repeated administration for one week
serotonin 5HT2A-receptor = serotonin 5HT2A-receptor (Homo sapiens, UniProt P28223); details: cited from earlier work
Sequence of serotonin 5HT2A-receptor (P28223 whole entry): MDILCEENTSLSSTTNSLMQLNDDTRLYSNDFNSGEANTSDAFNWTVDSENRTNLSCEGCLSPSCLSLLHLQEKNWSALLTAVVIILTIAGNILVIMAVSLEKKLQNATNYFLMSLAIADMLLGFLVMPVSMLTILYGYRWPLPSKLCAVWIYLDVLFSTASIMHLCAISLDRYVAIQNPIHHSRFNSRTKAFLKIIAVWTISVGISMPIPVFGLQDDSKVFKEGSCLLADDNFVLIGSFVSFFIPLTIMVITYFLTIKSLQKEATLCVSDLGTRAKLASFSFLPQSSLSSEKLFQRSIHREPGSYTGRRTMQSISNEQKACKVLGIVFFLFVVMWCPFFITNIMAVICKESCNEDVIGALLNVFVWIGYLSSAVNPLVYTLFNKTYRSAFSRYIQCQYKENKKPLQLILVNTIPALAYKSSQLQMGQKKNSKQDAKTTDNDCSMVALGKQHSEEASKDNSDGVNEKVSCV

rats [6] = details: cited from earlier work
depressive symptoms = assay: randomised placebo-controlled double-blind study in GAD: depressive symptoms (MADRS); format: in vivo, human
Procedure: (§1) The efficacy of deramciclane in the treatment of anxiety, specifically GAD, was studied in a randomised placebo-controlled double-blind study. In addition, the dosage-dependency of the effects of deramciclane was evaluated. A total of 208 patients were included in the study. The subjects were randomly assigned to four parallel groups to receive one tablet twice daily (b.i.d) of a placebo, 5 mg (=10 mg/day), 15 mg (=30 mg/day), or 30 mg (=60mg/day) deramciclane. The study started with a one-week placebo run-in period, followed by an eight-week placebo-controlled active treatment and a two-week placebo washout period.
The efficacy of deramciclane on depressive symptoms was studied using the Montgomery Asberg Depression Rating Scale (MADRS).

[7] = biological target: T1, serotonin 5-HT2A-receptors in frontal cortex (Homo sapiens, UniProt P28223); details: human brain, single oral dose; cited from earlier work
T1 construct: serotonin 5-HT2A-receptors in frontal cortex of healthy male volunteers; from tissue; host or cells: frontal cortex of living healthy male volunteers (in vivo)
T1 sequence (P28223 whole entry): as above

mice [8] = details: single subcutaneous administration, 3 mg/kg; cited from earlier work
[9] = test system: anxiety, specifically GAD; assay: randomised placebo-controlled double-blind study in GAD: anxiety symptoms (HAM-A, CGI); format: in vivo, human; details: for CGI severity of illness: percentage of patients not ill or very mildly ill: after 8 weeks
Procedure: as §1
The efficacy of deramciclane on anxiety symptoms was studied by the efficacy variable Hamilton Anxiety Scale (HAM-A), analyzing the change in the score and using responder criterion (at least 50% reduction in HAM-A total score). The Clinical Global Impression (GCI) scale was also used for analyzing the efficacy of deramciclane on anxiety symptoms.

[10] = rats, 3 mg/kg, cited from earlier work
mice [11] = details: oral doses 48-160 mg/kg; cited from earlier work
[12] = biological target: serotonin 5-HT2C-receptor (Homo sapiens, UniProt P28335); details: cited from earlier work
Sequence of serotonin 5-HT2C-receptor (P28335 33-458): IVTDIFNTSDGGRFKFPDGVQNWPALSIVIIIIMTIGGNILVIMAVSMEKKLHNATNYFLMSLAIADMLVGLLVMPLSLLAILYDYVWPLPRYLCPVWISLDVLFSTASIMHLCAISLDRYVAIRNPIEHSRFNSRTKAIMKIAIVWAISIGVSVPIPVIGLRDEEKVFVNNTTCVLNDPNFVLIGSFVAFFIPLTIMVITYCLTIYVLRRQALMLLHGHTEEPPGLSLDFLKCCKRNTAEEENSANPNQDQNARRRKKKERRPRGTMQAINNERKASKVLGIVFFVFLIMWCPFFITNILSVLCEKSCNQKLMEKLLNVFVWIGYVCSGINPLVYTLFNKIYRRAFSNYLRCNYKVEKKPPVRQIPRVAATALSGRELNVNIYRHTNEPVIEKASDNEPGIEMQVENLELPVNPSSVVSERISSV

[13] = rat, single oral administration; cited from earlier work
rats [14] = details: cited from earlier work; remark: listed apart in the source
withdrawal symptoms = assay: randomised placebo-controlled double-blind study in GAD: Physician's Withdrawal Checklist (PWC); format: in vivo, human
Procedure: as §1
After stopping the above-described 8-week treatment period, no discontinuation effects were seen (measured by the Physician's Withdrawal Checklist, PWC). This is different and surprising from the experiences with the most other efficacious drugs used for the treatment of anxiety.

[15] = human, cited from earlier work

factor by which oral dose in man is lower for the same maximal plasma concentration as in rat [3]: 40 times
factor by which oral dose is lower for equal exposure in humans than in rats ([3]; rat): over 300 times
PWC value, Mean (SD) (withdrawal symptoms; 5 mg b.i.d., after 2 week wash-out): 9 (8)
PWC value, Mean (SD) (withdrawal symptoms; 5 mg b.i.d., after 8 week treatment): 9 (7)
PWC value, Mean (SD) (withdrawal symptoms; 15 mg b.i.d., after 2 week wash-out): 8 (7)
PWC value, Mean (SD) (withdrawal symptoms; 15 mg b.i.d., after 8 week treatment): 7 (8)
PWC value, Mean (SD) (withdrawal symptoms; 30 mg b.i.d., after 2 week wash-out): 8 (7)
PWC value, Mean (SD) (withdrawal symptoms; 30 mg b.i.d., after 8 week treatment): 8 (8)
withdrawal symptoms after abrupt discontinuation (withdrawal symptoms; after 8-week treatment): did not cause any withdrawal symptoms
SMILES: CN(C)CCO[C@]1(c2ccccc2)C[C@H]2CC[C@]1(C)C2(C)C [deramciclane, (1R,2S,4R)-(−)-2-[N,N-(dimethylaminoethoxy)]-2-phenyl-1,7,7-trimethyl-bicyclo [2.2.1]heptane]
effect on helpless behaviour induced by inescapable electric foot shocks (rats [1]): dose dependently attenuated helpless behaviour
effect on social interaction time (rats [2]): enhanced the social interaction time
minimum effective dose (rats [2]): 0.7 mg/kg
effect in forced swimming test (rats [4]): clearly ineffective
Cmin and Cmax range ([5]; 20 mg daily): 16 to 33 ng/mL
Cmin and Cmax range ([5]; 60 mg daily): 48 to 91 ng/mL
Cmax ([5]; single oral 20 mg): 24 ± 9.4 ng/mL
Cmax ([5]; single oral 30 mg): 27 ± 6.1 ng/mL
antagonism of the receptor (serotonin 5HT2A-receptor): potent antagonist
binding affinity (serotonin 5HT2A-receptor; in vitro): high affinity
minimum oral effective anti-anxiety dose (rats [6]; oral): 1 mg/kg
activity in punished drinking test (rats [6]; single oral administration, 1 mg/kg and 10 mg/kg): active
effect on MADRS score (depressive symptoms; 5 mg b.i.d): ineffective
MADRS score decrease (depressive symptoms; 15 mg b.i.d, p=0.028): 7.7 points
MADRS score decrease (depressive symptoms; 30 mg b.i.d, p=0.016): 8.0 points
plasma concentration at 50% 5HT2A-receptor occupancy [7]: ~21 ng/mL
plasma concentration at 90% 5HT2A-receptor occupancy [7]: about 70 ng/ml
activity in two compartment test (mice [8]): active
HAM-A score, difference from placebo ([9]; 5 mg b.i.d, 8 weeks): No difference
CGI severity of illness: percentage of patients not ill or very mildly ill ([9]; 5 mg b.i.d): 49%
responders (at least 50% reduction in HAM-A total score) ([9]; 5 mg b.i.d., n=31): 57%
HAM-A score decrease from baseline ([9]; 15 mg b.i.d, 8 weeks, p=0.006 vs placebo): 14.5 points
CGI severity of illness: percentage of patients not ill or very mildly ill ([9]; 15 mg b.i.d): 55%
responders (at least 50% reduction in HAM-A total score) ([9]; 15 mg b.i.d., n=39, p=0.020 vs placebo): 76%
CGI severity of illness: percentage of patients not ill or very mildly ill ([9]; 30 mg b.i.d, p=0.030): 61%
HAM-A score decrease from baseline ([9]; 30 mg b.i.d., 8 weeks, not significant vs placebo): 14.5 points
responders (at least 50% reduction in HAM-A total score) ([9]; 30 mg b.i.d., n=37): 70%
radioactivity in organs including blood and the brain ([10]; intravenous administration): high radioactivity
radioactivity in organs, especially the brain ([10]; oral administration, compared with intravenous): substantially lower
effect on tetrabenazine-induced ptosis (mice [11]): negligible
antagonism of the receptor [12]: potent antagonist
binding affinity ([12]; in vitro): high affinity
mean AUC 0-∞ [13]: 11.9 ng·h/mL
effect on caerulein-induced decrease in exploratory behavior (rats [14]; intraperitoneal dose of 0.5 mg/kg): able to attenuate
effect in elevated plus maze test (rats [14]; rats, single intraperitoneal doses 0.1 mg/kg-5 mg/kg): totally ineffective
Cmax ([15]; single 3 mg/kg oral dose): 217.5 ng/mL
mean AUC 0-∞ ([15]; single oral administration): 3737.8 ng·h/mL
